The results in this text go back to patent US20110263693A1, “CELASTROL, GEDUNIN, AND DERIVATIVES THEREOF AS HSP90 INHIBITORS” (DANA-FARBER CANCER INSTITUTE, INC., priority 2006, published 2011).

The subject of data set [1] is celastrol and gedunin signatures. As to the kind of experiment: Connectivity Map query with the celastrol and gedunin signatures (joint). In kind it is cell-based, human. Conditions: Connectivity Map profiles, 6 hr. The source says: Indeed, a major challenge in cell-based chemical biology and chemical genomics is the identification of compounds' targets (Gardner et al., 2003). We hypothesized that gene expression signatures could be used to identify compound action based on the similarity of such compound-induced signatures to signatures of existing drugs of known mechanism. We therefore employed a collection of gene expression profiles of drug-treated cell lines that was developed in our lab, termed the Connectivity Map (Lamb et al., 2006). This database comprises 453 genome-wide Affymetrix expression profiles derived from the treatment of human cell lines with 164 small molecules, primarily FDA-approved drugs. A 6 hr treatment time was chosen in an attempt to capture the primary, and potentially mechanistic, effects of the compounds rather than the downstream phenotypic consequences.
In order to use the Connectivity Map to gain insight into celastrol and gedunin function, we first defined a gene expression signature of celastrol and gedunin activity. The expression signatures of celastrol and gedunin were derived by expression profiling of RNA from LNCaP cells treated with celastrol (1.25 μM), gedunin (20 μM), and vehicle (DMSO) for 6 hr; signatures were defined using comparative marker selection to identify transcripts that distinguished between the compound- and vehicle-treated profiles by the signal-to-noise (SNR) metric. The enrichment of these signatures in the gene expression profiles of the Connectivity Map database was then assessed using a gene enrichment metric, the connectivity score, based on the Kolmogorov-Smirnov statistic (Lamb et al., 2003).
The celastrol and gedunin signatures were developed from RMA-processed microarray data from LNCaP cells treated with 1.25 μM celastrol or 20 μM gedunin for 6 hours. Comparative marker selection was used to identify markers that distinguished celastrol- and/or gedunin-treated samples from vehicle-treated samples by the median SNR (Golub et al., 1999). […]

Data set [2] relates to androgen signaling signature in LNCaP cells. As to the kind of experiment: GE-HTS androgen signaling signature assay / screen. The following applies: LNCaP, with and without 12 hours androgen pretreatment.
Data set [3] has as its system gedunin signature. Briefly: Connectivity Map query with the gedunin signature. Format: cell-based, human. Details: key to gedunin score (connectivity score): connectivity score, based on Kolmogorov-Smirnov statistic. Conditions: for gedunin score (connectivity score): enrichment of the gedunin signature (20 μM gedunin at 6 hours, LNCaP) in the compound's Connectivity Map profiles, 6 hr treatment; for connectivity scores for the gedunin signature: multiple instances, gedunin signature from LNCaP, 6 hours; for gedunin rank: rank by gedunin score among 164 Connectivity Map compounds. In a few lines: (§1)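 LNCaP cells received celastrol 1.25 μM or gedunin 20 μM for 6 h. Each signature was scored by Kolmogorov–Smirnov-based connectivity against 453 build01 profiles, mostly 6 h treatments of MCF7 cells.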

For data set [4], the system named is celastrol signature. Briefly: Connectivity Map query with the celastrol signature. Format: cell-based, human. Details: key to celastrol score (connectivity score): connectivity score, based on Kolmogorov-Smirnov statistic. Conditions: for celastrol score (connectivity score): enrichment of the celastrol signature (1.25 μM celastrol at 6 h, LNCaP) in the compound's Connectivity Map profiles, 6 hr treatment; for celastrol rank: rank by celastrol score among 164 Connectivity Map compounds. In a few lines: as §1

Data set [5] relates to HSP90 interaction with the cochaperone p23. As to the kind of experiment: HSP90 coimmunoprecipitation, p23. The following applies: SKBR-3 cells; celastrol 2.5 μM, 12 hr. In kind it is cell-based. The method, then:
Geldanamycin and other HSP90 inhibitors are known to inhibit p23 association with HSP90 (Felts et al., 2003).
SKBR-3 cells were treated with vehicle, celastrol (2.5 μM, 12 hr), and PU24FCI (20 μM, 24 hr) (Vilenchik et al., 2004). Cells were lysed in 20 mM Tris HCl (pH 7.4), 25 mM NaCl, 2 mM DDT, 20 mM Na2MoO4, 0.1% NP-40, and […]. Lysates were incubated for 2 hr at 4° C., rotating, and then centrifuged at 13,000×g for 10 min. Protein (500 μg) was incubated with H9010 anti-HSP90 antibody for 1 hr at 4° C., rotating. Protein G agarose (30 μl; Upstate) was added to each sample, and samples were then incubated for 1 hr at 4° C., rotating. The beads were washed five times with 1 ml lysis buffer. Bound proteins were isolated by boiling in sample buffer. The levels of HSP90 and coimmunoprecipitating proteins were analyzed by western blot.

Data set [6] addresses HSP90α (Homo sapiens, UniProt P07900). Briefly: Geldanamycin competition assay (Cy3B-geldanamycin fluorescence polarization). In kind it is binding. Details: purchased Stressgen SPP776 / SPP-776. Conditions: celastrol and gedunin at concentrations up to ~100 μM. Here is the method: We first tested whether celastrol or gedunin could compete with Cy3B-geldanamycin for binding to the ATP-binding pocket of purified HSP90α by fluorescence polarization assay (Kim et al., 2004, Llauger-Bufi et al., 2003).
The geldanamycin competition assay was performed as described (He et al., 2006, Kim et al., 2004), except that Cy3B-geldanamycin rather than BODIPY-geldanamycin was used as described herein.
Measurements were taken in black 96-well microtiter plates (Coming #3650). The assay buffer (HFB) contained 20 mM HEPES (K) pH 7.3, 50 mM KCl, 5 mM MgCl2, 20 mM Na2MoO4, 0.01% NP40. Before each use, 0.1 mg/mL bovine gamma globulin (BGG) (Panvera Corporation, Madison, Wis.) and 2 mM DTT (Fisher Biotech, Fair Lawn, N.J.) were freshly added. GM-cy3B was synthesized as previously reported and was dissolved in DMSO to form 10 μM solutions. Cell lysates were prepared rupturing cellular membranes by freezing at −70° C. and dissolving the cellular extract in HFB with added protease and phosphotase inhibitors. Saturation curves were recorded in which GM-cy3B (3 nM) was treated with increasing amounts of cellular lysates.

Data set [7] in a line: in vitro. The following applies: human.

Regarding `C=CCNC1=C2C[C@@H](C)C[C@H](OC)[C@H](O)[C@@H](C)/C=C(\C)[C@H](OC(N)=O)[C@@H](OC)/C=C\C=C(/C)C(=O)NC(=CC1=O)C2=O` [17-AAG, 17-allylamino-geldanamycin, reference compound], the “similarity of gene expression profile to the celastrol and gedunin signatures” value (shortened to “similarity of gene expression profile”) in data set [1] was “very strong similarity”. For the same compound, the “effect on the GE-HTS androgen signaling signature outside the screen” value in data set [2] is recorded as “suppressed the androgen signaling signature”. In addition, in data set [3], the “gedunin score (connectivity score)” value was 0.702, the “connectivity scores for the gedunin signature” value was “High connectivity scores” and the gedunin rank was 6. In data set [4], the “celastrol score (connectivity score)” value was determined as 0.736 and the celastrol rank was 8.
For the compound `CO[C@H]1/C=C\C=C(/C)C(=O)NC2=CC(=O)C(NCCN(C)C)=C(C[C@@H](C)C[C@H](OC)[C@H](O)[C@@H](C)/C=C(\C)[C@@H]1OC(N)=O)C2=O` [17-DMAG, 17-dimethylaminoethylamino-17-demethoxy-geldanamycin, reference compound], the “similarity of gene expression profile” value in data set [1] was “very strong similarity”. For the same compound, in data set [3], the “gedunin score (connectivity score)” value is 0.73, the “connectivity scores for the gedunin signature” value is on record as “High connectivity scores” and the gedunin rank was 5. In data set [4], the “celastrol score (connectivity score)” value was 0.766 and the celastrol rank came out at 6.
In the case of `CC(C)NCCCn1c(Sc2cc3c(cc2I)OCO3)nc2c(N)ncnc21` [PU-H71, reference compound], the “HSP90 interaction with cochaperone p23 (coimmunoprecipitation)” value in data set [5] is “had the same effect”. The “competition with Cy3B-geldanamycin for binding to the ATP-binding pocket of HSP90α” value in data set [6] is “competed with geldanamycin binding at low concentrations”.
For the compound `C[C@@H]1C[C@H]2O[C@@H]2/C=C\C=C\C(=O)Cc2c(Cl)c(O)cc(O)c2C(=O)O1` [monorden, reference compound], the “similarity of gene expression profile” value in data set [1] is recorded as “very strong similarity”. Also, the “gedunin score (connectivity score)” value in data set [3] is on record as 0.511. In addition, in data set [4], the “celastrol score (connectivity score)” value is 0.409.
`CO[C@H]1C[C@H](O[C@@H]2/C(C)=C/C[C@@H]3C[C@@H](C[C@]4(CC[C@H](C)[C@@H](C5CCCCC5)O4)O3)OC(=O)[C@@H]3C=C(C)/C(=N/O)[C@H]4OC/C(=C\C=C\[C@@H]2C)[C@]43O)O[C@@H](C)[C@@H]1O` [selamectin] showed a viability in data set [7] of 81.1%.
